The text below walks through data of publication PMC2752672 (Biochemistry, 2009).

SMILES strings stand for the structures. Where two headings read alike, the source gives them in different places.

Series [1] addresses T1, KOR (Homo sapiens, UniProt P41145). Briefly: biochemical. It is filed as binding.
For series [2], the system named is C57BL/6J mice. Format: in vivo, mouse. As to conditions: for baseline startle activity: 120-dB stimulus, all doses; for prepulse-dependent PPI: all prepulse intensities.
Series [3] addresses T1, KOR. Briefly: biochemical. To be noted: for EC50: read-out: EC50 c. It is filed as biochemical.
In series [4] the target is T1, KOR. Format: binding. To be noted: read-out: Ki b.
The target of series [5] is T1, KOR. Format: binding. To be noted: read-out: Ki a.
Series [6] can be described thus: storage stability of the compound. To be noted: room temperature / prolonged storage.

T1 sequence (P41145 whole entry): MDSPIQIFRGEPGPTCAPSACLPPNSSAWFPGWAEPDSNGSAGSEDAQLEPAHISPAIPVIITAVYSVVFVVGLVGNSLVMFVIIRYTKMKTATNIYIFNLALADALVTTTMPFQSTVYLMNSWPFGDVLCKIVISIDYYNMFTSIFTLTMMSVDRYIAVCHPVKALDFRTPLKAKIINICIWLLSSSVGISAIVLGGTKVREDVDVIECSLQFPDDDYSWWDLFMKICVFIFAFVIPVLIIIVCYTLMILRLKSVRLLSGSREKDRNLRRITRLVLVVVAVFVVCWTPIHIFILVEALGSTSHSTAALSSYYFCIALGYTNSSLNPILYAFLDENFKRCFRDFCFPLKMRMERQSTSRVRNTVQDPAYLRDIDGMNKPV

With `COC(=O)[C@@H]1C[C@H](OC(C)=O)C(=O)[C@H]2[C@@]1(C)CC[C@H]1C(=O)O[C@H](c3ccoc3)C[C@]21C` [Salvinorin A, reference compound], the “effect on radioligand binding after incubation and washing (controls)” value in series [1] is recorded as “did not substantially alter radioligand binding”. Further, the “Null Activity (mAmp displacement)” value turned out to be 19.44 ± 5.83 mAmp displacement in series [2] (0.25 mg/kg i.p., mice); 28.79 ± 3.99 mAmp displacement in series [2] (0.5 mg/kg i.p., mice); 13.63 ± 3.65 mAmp displacement in series [2] (1.0 mg/kg i.p., mice); 13.76 ± 3.65 mAmp displacement in series [2] (2.0 mg/kg i.p., mice). Moreover, in series [2] (0.5 mg/kg, compared to all other doses and vehicle, p < 0.001), the “null activity, in words” value is “significant increases in null activity”. In series [2] (2 mg/kg), the “PPI at the 8-, 12-, and 16-dB prepulses vs vehicle” value is “marked reductions in PPI”. Moreover, the “PPI responses to 4 dB prepulse vs vehicle” value in series [2] (2 mg/kg) is on record as “unchanged from the vehicle control”. For the same compound, the “overall PPI (overall inhibition) vs vehicle” value in series [2] (2 mg/kg i.p., p < 0.044) was “significantly suppressed inhibition”; in series [2] (0.25, 0.5, or 1 mg/kg i.p.), “similar”. Moreover, in series [2] (0.25, 0.5, or 1 mg/kg), the “PPI responses at the 8- and 12-dB prepulses vs vehicle” value is “similar”. The “PPI to the 4-dB prepulse vs vehicle” value in series [2] (0.25, 0.5 or 1 mg/kg, p < 0.051) is on record as “increased PPI to the 4-dB prepulse”. Moreover, the baseline startle activity result in series [2] is given as “dose-dependent parabolic changes in baseline startle activity”. In series [2], the “prepulse-dependent PPI” value is on record as “disrupted prepulse-dependent PPI at all prepulse intensities”.

With `COC(=O)C1CC(OC(=O)C(C)Cl)C(=O)C2C1(C)CCC1C(=O)OC(c3ccoc3)CC12C` [RB-55, (22-R,S)-22-Chloro-22-methylsalvinorin A], in series [3], the “Relative Emax” value is 83 +/− 10% and the 50% effective concentration (EC50) came out at 35 nM. Moreover, the Ki in series [4] came to 189 ± 70.1 nM. Moreover, the inhibition constant Ki in series [5] was found to be 21 ± 3 nM.

Regarding `COC(=O)[C@@H]1C[C@H](OC(=O)CBr)C(=O)[C@H]2[C@@]1(C)CC[C@H]1C(=O)O[C@H](c3ccoc3)C[C@]21C` [RB-50, 22-Bromosalvinorin A], the “Relative Emax” value in series [3] was 76 +/− 7%. Moreover, in series [3], the concentration giving a half-maximal response (EC50) is 11 nM. In series [1], the “irreversible inhibition of binding, tested as potential affinity ligand” value is given as “none showed significant irreversible inhibition of binding”. In addition, the values for the inhibition constant Ki in series [4] and in series [5] were 39.6 ± 11.6 nM and 1.5 ± 0.22 nM, respectively. The stability on storage result in series [6] was “highly unstable at room temperature”.

On to `COC(=O)C1CC(OC(=O)C(C)Cl)C(=O)C2C1(C)CCC1C(=O)OC(c3ccoc3)CC12C` (single isomer, unassigned) [RB-55-1, (22-S)-22-Chloro-22-methylsalvinorin A], for which, in series [3], the “Relative Emax” value is 99 +/− 12% and the EC50 worked out at 160 nM. Also, the inhibition constant Ki in series [4] was 269 ± 48 nM. Further, the Ki in series [5] worked out at 30 ± 15 nM.

Consider `COCC(=O)O[C@H]1C[C@@H](C(=O)OC)[C@]2(C)CC[C@H]3C(=O)O[C@H](c4ccoc4)C[C@]3(C)[C@H]2C1=O` [RB-65, 22-Methoxysalvinorin A], for which, in series [3], the “Relative Emax” value is listed as 99 +/− 11% and the 50% effective concentration (EC50) turned out to be 67 nM. Also, the Ki in series [4] was 431 ± 54.1 nM. The inhibition constant Ki in series [5] amounted to 5.7 ± 1.2 nM.

Take `COC(=O)C1CC(OC(=O)C(C)Cl)C(=O)C2C1(C)CCC1C(=O)OC(c3ccoc3)CC12C` (single isomer, unassigned) [RB-55-2, (22-R)-22-Chloro-22-methylsalvinorin A]: in series [3], the “Relative Emax” value was 98 +/− 8% and the 50% effective concentration (EC50) came out at 273 nM. Further, the inhibition constant Ki in series [4] was above 3000 nM. Further, the inhibition constant (Ki) in series [5] is 58 ± 32 nM.

In the case of `COC(=O)[C@@H]1C[C@H](OC(=O)CCl)C(=O)[C@H]2[C@@]1(C)CC[C@H]1C(=O)O[C@H](c3ccoc3)C[C@]21C` [RB-48, 22-Chlorosalvinorin A], in series [3], the “Relative Emax” value was determined as 85 ± 3%. Besides, the concentration giving a half-maximal response (EC50) in series [3] was determined as 0.19 ± 0.01 nM. Further, the “wash-resistant inhibition of binding (preliminary studies)” value in series [1] is listed as “resulted in wash-resistant inhibition of binding”. The Ki is 32 ± 15 nM in series [4] and 2.1 ± 0.8 nM in series [5].

With `COC(=O)[C@@H]1C[C@H](OC(=O)CSC#N)C(=O)[C@H]2[C@@]1(C)CC[C@H]1C(=O)O[C@H](c3ccoc3)C[C@]21C` [RB-64, 22-Thiocyanatosalvinorin A], the maximal effect (Emax) in series [3] (read-out: Relative Emax) turned out to be 95 ± 2%. In series [1], the “maximum of KOR labeled” value came to 59%. In series [1], the “wash-resistant inhibition of KOR binding” value amounted to 82%. In series [1] (EC50 for wash-resistant inhibition of binding), this compound yielded an EC50 of 9000 nM. Moreover, the “Null Activity (mAmp displacement)” value in series [2] (0.005 mg/kg i.p., mice) was 8.22 ± 3.73 mAmp displacement; in series [2] (0.01 mg/kg i.p., mice) it was 16.81 ± 4.4 mAmp displacement; in series [2] (0.05 mg/kg i.p., mice) it was 64.89 ± 10.88 mAmp displacement; in series [2] (0.1 mg/kg i.p., mice) it was 51.6 ± 12.16 mAmp displacement. The “PPI responses to the 12- and 16-dB prepulses” value is reported as “depressed responses” in series [2] (0.005 mg/kg, p < 0.010) and “increased the responses” in series [2] (0.05 mg/kg, p < 0.052). Moreover, the “overall PPI (overall inhibition) vs vehicle” value is listed as “significant reduction in overall inhibition” in series [2] (0.1 mg/kg i.p., p < 0.046); “marked increases in overall inhibition” in series [2] (0.01 and 0.05 mg/kg i.p., p < 0.021). For the same compound, the “PPI to the 4 dB prepulse vs vehicle” value in series [2] (0.005, 0.01, or 0.05 mg/kg, p < 0.047) is recorded as “enhanced relative to vehicle”. Further, the “PPI to the 8-dB prepulse vs vehicle” value in series [2] (0.01 and 0.05 mg/kg, p < 0.031) was “increased PPI to the 8-dB prepulse”. Moreover, the baseline startle activity entry in series [2] is recorded as “dose-dependent parabolic changes in baseline startle activity”. Also, in series [2], the “prepulse-dependent PPI” value was “disrupted prepulse-dependent PPI at all prepulse intensities”. Moreover, the “PPI responses to the 12- and 16-dB prepulses vs vehicle” value in series [2] (highest dose (0.1 mg/kg), p < 0.003) is “significantly depressed compared to the vehicle control”. For the same compound, in series [2] (in vivo studies (PPI), mice), the “in vivo efficacy relative to salvinorin A” value is 20 fold. The “null activity, in words” value is on record as “increased activity” in series [2] (two highest doses (0.05, 0.1 mg/kg), compared to vehicle, p < 0.001) and “little effect on null activity” in series [2] (two lower doses (0.005, 0.01 mg/kg)). Moreover, in series [6], the stability on storage entry was “stable compound and may be stored for prolonged time without decomposition”.

As to `COC(=O)C1CC(OC(=O)C(Cl)Cl)C(=O)C2C1(C)CCC1C(=O)OC(c3ccoc3)CC12C` (stereo not shown) [RB-66, 22,22-Dichlorosalvinorin A], in series [3], the “Relative Emax” value is 103 +/− 14%. The EC50 in series [3] worked out at 1680 nM. Moreover, the results for the inhibition constant Ki in series [4] and in series [5] were above 10000 nM and 911 ± 170 nM, respectively.

With `Oc1ccc2c3c1O[C@H]1c4[nH]c5c(c4C[C@@]4(O)[C@@H](C2)N(CC2CC2)CC[C@]314)C[C@@]1(O)[C@H]2Cc3ccc(O)c4c3[C@@]1(CCN2CC1CC1)[C@H]5O4` [Nor-BNI, nor-binaltorphimine, reference compound], the “antagonism of agonist-induced disruption of PPI” value in series [2] (mouse, in vivo) is “antagonized salvinorin A and RB-64-induced disruption of PPI”.

The EC50 is the midpoint of the concentration-response curve. For orientation: Ki means a measure of affinity in units of concentration, obtained from inhibition or displacement. In general, Emax refers to the greatest response seen or fitted, relative to the assay's reference.
